# Where two headings read alike, the source gives them in different places.
# Legend:
# Assay type in all cases: in vivo
# [1] = tested on: Echinochloa crus-galli (ECHCG); assay: Post-emergence efficacy, Method B; details: read-out: Control of weed species after post-emergence application, ECHCG
# Protocol: (§1) An “instant formulation”, known as the IF50, containing 50 g/L of the “technical” (i.e. unformulated) active ingredient was prepared by dissolving the active ingredient in a mixture of organic solvents and emulsifier, details of which are provided in the table. This IF50 was then mixed with a small, variable amount of acetone to aid dissolution, before addition of an aqueous solution of 1% v/v ammonium sulphate+1% v/v Empicol ESC70 (Sodium lauryl ether sulphate) adjuvant, as the aqueous diluent, to form an aqueous spray solution which contains a predetermined concentration of the active ingredient (which varies depending on the application rate of the active ingredient to the plants).
# (§2) This aqueous spray solution was then sprayed onto the plants, after about 12 days' cultivation. The plants were grown from seeds sown in standard soil, placed in a glasshouse under controlled conditions (at 24/18° C. or 20/16° C., day/night; 16 hours light; 65% humidity). After spray application the plants were then grown on in a glasshouse under the same conditions and watered twice daily. […] the test was evaluated (100=total damage to plant; 0=no damage to plant).
# (§3) Ipomoea hederacea (IPOHE), Euphorbia heterophylla (EPHHL), Chenopodium album (CHEAL), Amaranthus retroflexus (AMARE), Lolium perenne (LOLPE), Digitaria sanguinalis (DIGSA), Eleusine indica (ELEIN), Echinochloa crus-galli (ECHCG), Setaria faberi (SETFA)
# [2] = tested on: Ipomoea hederacea (IPOHE); assay: Post-emergence efficacy, Method B; details: read-out: Control of weed species after post-emergence application, IPOHE
# Protocol: as §1, §2, §3
# Setaria faberi (SETFA) [3] = assay: Post-emergence efficacy, Method B; details: read-out: Control of weed species after post-emergence application, SETFA
# Protocol: as §1, §2, §3
# Eleusine indica (ELEIN) [4] = assay: Post-emergence efficacy, Method B; details: read-out: Control of weed species after post-emergence application, ELEIN
# Protocol: as §1, §2, §3
# [5] = tested on: Amaranthus retroflexus (AMARE); assay: Post-emergence efficacy, Method B; details: read-out: Control of weed species after post-emergence application, AMARE
# Protocol: as §1, §2, §3
# [6] = tested on: Chenopodium album (CHEAL); assay: Post-emergence efficacy, Method B; details: read-out: Control of weed species after post-emergence application, CHEAL
# Protocol: as §1, §2, §3
# [7] = tested on: Euphorbia heterophylla (EPHHL); assay: Post-emergence efficacy, Method B; details: read-out: Control of weed species after post-emergence application, EPHHL
# Protocol: as §1, §2, §3
# Lolium perenne (LOLPE) [8] = assay: Post-emergence efficacy, Method B; details: read-out: Control of weed species after post-emergence application, LOLPE
# Protocol: as §1, §2, §3
# [9] = tested on: Digitaria sanguinalis (DIGSA); assay: Post-emergence efficacy, Method B; details: read-out: Control of weed species after post-emergence application, DIGSA
# Protocol: as §1, §2, §3
# [10] = tested on: Amaranthus palmeri (AMAPA); assay: Post-emergence efficacy, Method A; details: Amaranthus palmeri, post-emergence, 312 h, evaluated after 13 days
# How it was run: (§4)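 Plants raised 14 days from seed in standard soil in a glasshouse (24/16 °C day/night, 14 h light, 65% humidity) were sprayed with compound dissolved in acetone plus IF50 solvent/emulsifier (50 g/l solution), diluted with 0.25% or 1% Empicol ESC70 + 1% ammonium sulphate. Damage was scored visually after 13 days (0 = none, 100 = total).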
# Eleusine indica (ELEIN) [11] = assay: Post-emergence efficacy, Method A; details: Eleusine indica, post-emergence, 312 h, evaluated after 13 days
# How it was run: as §4
# [12] = tested on: Chenopodium album (CHEAL); assay: Post-emergence efficacy, Method A; details: Chenopodium album, post-emergence, 312 h, evaluated after 13 days
# How it was run: as §4
# [13] = tested on: Euphorbia heterophylla (EPHHL); assay: Post-emergence efficacy, Method A; details: Euphorbia heterophylla, post-emergence, 312 h, evaluated after 13 days
# How it was run: as §4
# [14] = tested on: Echinochloa crus-galli (ECHCG); assay: Post-emergence efficacy, Method A; details: Echinochloa crus-galli, post-emergence, 312 h, evaluated after 13 days
# How it was run: as §4
# [15] = tested on: Ipomoea hederacea (IPOHE); assay: Post-emergence efficacy, Method A; details: Ipomoea hederacea, post-emergence, 312 h, evaluated after 13 days
# How it was run: as §4
# Setaria faberi (SETFA) [16] = assay: Post-emergence efficacy, Method A; details: Setaria faberi, post-emergence, 312 h, evaluated after 13 days
# How it was run: as §4
# Lolium perenne (LOLPE) [17] = assay: Post-emergence efficacy, Method A; details: Lolium perenne, post-emergence, 312 h, evaluated after 13 days
# How it was run: as §4
# [18] = tested on: Digitaria sanguinalis (DIGSA); assay: Post-emergence efficacy, Method A; details: Digitaria sanguinalis, post-emergence, 312 h, evaluated after 13 days
# How it was run: as §4
# [19] = Application Rate 500 g/Ha, Method A, read-out: Control of weed species after post-emergence application, AMAPA (100=total damage to plant; 0=no damage to plant)
# [20] = Application Rate 500 g/Ha, Method A, read-out: Control of weed species after post-emergence application, ELEIN (100=total damage to plant; 0=no damage to plant)
# [21] = Application Rate 500 g/Ha, Method A, read-out: Control of weed species after post-emergence application, CHEAL (100=total damage to plant; 0=no damage to plant)
# [22] = Application Rate 500 g/Ha, Method A, read-out: Control of weed species after post-emergence application, EPHHL (100=total damage to plant; 0=no damage to plant)
# [23] = Method B, 500 g/Ha, 100=total damage to plant, 0=no damage
# [24] = Method B, 1000 g/Ha, 100=total damage to plant, 0=no damage
structure (smiles),measurement,setting,value
"N[C@H](CC[n+]1ccc(-c2ncccn2)cn1)C(=O)O [Compound A207, [(1R)-1-carboxy-3-(4-pyrimidin-2-ylpyridazin-1-ium-1-yl)propyl]ammonium 2,2,2-trifluoroacetate]",pest or weed control at 1000 g/ha,[1],100%
same,pest or weed control at 1000 g/ha,[2],100%
same,pest or weed control at 1000 g/ha,Setaria faberi (SETFA) [3],100%
same,pest or weed control at 1000 g/ha,Eleusine indica (ELEIN) [4],100%
same,pest or weed control at 1000 g/ha,[5],100%
same,pest or weed control at 1000 g/ha,[6],90%
same,pest or weed control at 1000 g/ha,[7],70%
same,pest or weed control at 1000 g/ha,Lolium perenne (LOLPE) [8],20%
same,pest or weed control at 1000 g/ha,[9],90%
same,pest or weed control at 500 g/ha,[10]; [19],100%
same,pest or weed control at 500 g/ha,Eleusine indica (ELEIN) [11]; [20],100%
same,pest or weed control at 500 g/ha,[12]; [21],100%
same,pest or weed control at 500 g/ha,[13]; [22],90%
O=S(=O)([O-])CC[n+]1ccc(-c2ccncn2)cn1 [Compound A4],pest or weed control at 500 g/ha,[1]; [23],70%
same,pest or weed control at 500 g/ha,[2]; [23],100%
same,pest or weed control at 500 g/ha,Setaria faberi (SETFA) [3]; [23],40%
same,pest or weed control at 500 g/ha,Eleusine indica (ELEIN) [4]; [23],80%
same,pest or weed control at 500 g/ha,[5]; [23],100%
same,pest or weed control at 500 g/ha,[6]; [23],80%
same,pest or weed control at 500 g/ha,[7]; [23],100%
same,pest or weed control at 500 g/ha,Lolium perenne (LOLPE) [8]; [23],90%
same,pest or weed control at 500 g/ha,[9]; [23],100%
same,pest or weed control at 500 g/ha,"[14]; Application rate 500 g/Ha, 100=total damage to plant, 0=no damage to plant, read-out: Control of weed species after post-emergence application, ECHCG",60%
same,pest or weed control at 500 g/ha,"[10]; Application rate 500 g/Ha, 100=total damage to plant, 0=no damage to plant, read-out: Control of weed species after post-emergence application, AMAPA",100%
same,pest or weed control at 500 g/ha,"[15]; Application rate 500 g/Ha, 100=total damage to plant, 0=no damage to plant, read-out: Control of weed species after post-emergence application, IPOHE",90%
same,pest or weed control at 500 g/ha,"Setaria faberi (SETFA) [16]; Application rate 500 g/Ha, 100=total damage to plant, 0=no damage to plant, read-out: Control of weed species after post-emergence application, SETFA",60%
same,pest or weed control at 500 g/ha,"Eleusine indica (ELEIN) [11]; Application rate 500 g/Ha, 100=total damage to plant, 0=no damage to plant, read-out: Control of weed species after post-emergence application, ELEIN",100%
same,pest or weed control at 500 g/ha,"[12]; Application rate 500 g/Ha, 100=total damage to plant, 0=no damage to plant, read-out: Control of weed species after post-emergence application, CHEAL",80%
same,pest or weed control at 500 g/ha,"[13]; Application rate 500 g/Ha, 100=total damage to plant, 0=no damage to plant, read-out: Control of weed species after post-emergence application, EPHHL",100%
same,pest or weed control at 500 g/ha,"Lolium perenne (LOLPE) [17]; Application rate 500 g/Ha, 100=total damage to plant, 0=no damage to plant, read-out: Control of weed species after post-emergence application, LOLPE",100%
same,pest or weed control at 500 g/ha,"[18]; Application rate 500 g/Ha, 100=total damage to plant, 0=no damage to plant, read-out: Control of weed species after post-emergence application, DIGSA",80%
O=C([O-])CCC[n+]1ccc(-c2ncccn2)cn1 [Compound A220],pest or weed control at 1000 g/ha,[1]; [24],90%
same,pest or weed control at 1000 g/ha,[2]; [24],30%
same,pest or weed control at 1000 g/ha,Setaria faberi (SETFA) [3]; [24],30%
same,pest or weed control at 1000 g/ha,Eleusine indica (ELEIN) [4]; [24],100%
same,pest or weed control at 1000 g/ha,[5]; [24],100%
same,pest or weed control at 1000 g/ha,[6]; [24],90%
same,pest or weed control at 1000 g/ha,[7]; [24],100%
same,pest or weed control at 1000 g/ha,Lolium perenne (LOLPE) [8]; [24],90%
same,pest or weed control at 1000 g/ha,[9]; [24],100%
same,pest or weed control at 500 g/ha,"[14]; Application Rate 500 g/Ha, Method A, read-out: Control of weed species after post-emergence application, ECHCG (100=total damage to plant; 0=no damage to plant)",40%
same,pest or weed control at 500 g/ha,[10]; [19],100%
same,pest or weed control at 500 g/ha,"[15]; Application Rate 500 g/Ha, Method A, read-out: Control of weed species after post-emergence application, IPOHE (100=total damage to plant; 0=no damage to plant)",80%
same,pest or weed control at 500 g/ha,"Setaria faberi (SETFA) [16]; Application Rate 500 g/Ha, Method A, read-out: Control of weed species after post-emergence application, SETFA (100=total damage to plant; 0=no damage to plant)",60%
same,pest or weed control at 500 g/ha,Eleusine indica (ELEIN) [11]; [20],20%
same,pest or weed control at 500 g/ha,[12]; [21],100%
same,pest or weed control at 500 g/ha,[13]; [22],90%
same,pest or weed control at 500 g/ha,"Lolium perenne (LOLPE) [17]; Application Rate 500 g/Ha, Method A, read-out: Control of weed species after post-emergence application, LOLPE (100=total damage to plant; 0=no damage to plant)",60%
same,pest or weed control at 500 g/ha,"[18]; Application Rate 500 g/Ha, Method A, read-out: Control of weed species after post-emergence application, DIGSA (100=total damage to plant; 0=no damage to plant)",90%
